{"source": "ChEMBL document CHEMBL4842358", "about": "“Design, synthesis and biological evaluation of sphingosine-1-phosphate receptor 2 antagonists as potent 5-FU-resistance reversal agents for the treatment of colorectal cancer” (Eur J Med Chem, 2021)", "key": {"[1]": {"experiment": "Initial plasma concentration in Sprague-Dawley rat at 1 mg/kg, iv by LC-MS/MS analysis", "format": "ADME, organism-based"}, "[2]": {"experiment": "Initial drug concentration in Sprague-Dawley rat blood at 1 mg/kg, iv by LC-MS/MS analysis", "format": "ADME, organism-based"}, "[3]": {"experiment": "Half life in Sprague-Dawley rat plasma at 1 mg/kg, iv measured for 24 hrs by LC-MS/MS analysis", "format": "ADME, organism-based"}, "[4]": {"experiment": "Volume of distribution in Sprague-Dawley rat plasma at 1 mg/kg, iv measured for 24 hrs by LC-MS/MS analysis", "format": "ADME, organism-based"}, "[5]": {"experiment": "Ratio of drug level in Sprague-Dawley rat blood to plasma at 1 mg/kg, iv measured for 24 hrs by LC-MS/MS analysis", "format": "ADME, organism-based", "settings": "blood and plasma"}, "[6]": {"experiment": "Half life in Sprague-Dawley rat blood at 1 mg/kg, iv measured for 24 hrs by LC-MS/MS analysis", "format": "ADME, organism-based"}, "Mus musculus [7]": {"system": "Mus musculus", "experiment": "Downregulation of DPD expression in liver of athymic nude mouse xenografted with human SW620/5-FU at 12.5 mg/kg/day, iv administered for 24 days in presence of 5-FU and measured on day 24 by immunohistochemistry", "format": "functional, organism-based", "settings": "time 24.0 day"}, "[8]": {"experiment": "Plasma concentration in Sprague-Dawley rat at 1 mg/kg, iv measured after 8 hrs by LC-MS/MS analysis", "format": "ADME, organism-based"}, "[9]": {"target": "T1, Sphingosine 1-phosphate receptor 2 (Homo sapiens, UniProt O95136)", "T1 sequence (O95136 whole entry)": "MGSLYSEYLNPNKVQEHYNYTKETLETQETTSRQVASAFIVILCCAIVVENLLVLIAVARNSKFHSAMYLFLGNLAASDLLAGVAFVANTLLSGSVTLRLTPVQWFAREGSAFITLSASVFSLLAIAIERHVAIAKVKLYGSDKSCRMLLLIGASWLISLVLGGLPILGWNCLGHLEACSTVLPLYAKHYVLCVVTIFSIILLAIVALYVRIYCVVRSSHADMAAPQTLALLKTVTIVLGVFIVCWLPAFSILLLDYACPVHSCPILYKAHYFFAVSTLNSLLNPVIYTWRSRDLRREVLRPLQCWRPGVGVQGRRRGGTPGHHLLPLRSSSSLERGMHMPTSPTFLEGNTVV", "experiment": "Binding affinity to S1PR2 (unknown origin) assessed as dissociation constant measured for 60 secs by surface plasmon resonance assay"}, "[10]": {"target": "T1, Sphingosine 1-phosphate receptor 2", "experiment": "Binding affinity to S1PR2 (unknown origin) measured by surface plasmon resonance assay", "settings": "filed as antagonist"}, "[11]": {"experiment": "Volume of distribution in Sprague-Dawley rat blood at 1 mg/kg, iv measured for 24 hrs by LC-MS/MS analysis", "format": "ADME, organism-based"}, "Mus musculus [12]": {"system": "Mus musculus", "experiment": "Downregulation of DPD expression in tumour of athymic nude mouse xenografted with human SW620/5-FU at 12.5 mg/kg/day, iv administered for 24 days in presence of 5-FU and measured on day 24 by immunohistochemistry", "format": "functional, organism-based", "settings": "time 24.0 day"}, "Mus musculus [13]": {"system": "Mus musculus", "experiment": "Downregulation of DPD expression in colon of athymic nude mouse xenografted with human SW620/5-FU cells at 12.5 mg/kg/day, iv administered for 24 days in presence of 5-FU and measured on day 24 by immunohistochemistry", "format": "functional, organism-based", "settings": "time 24.0 day"}, "[14]": {"target": "T1, Sphingosine 1-phosphate receptor 2", "experiment": "Antagonist activity at S1PR2 in human SW620/5-FU cells assessed as reduction of DPD-catalyzed 5-FU degradation by measuring intracellular FBAL level at 2 uM measured after 6 hrs by HPLC-UV analysis", "format": "functional, cell-based", "settings": "filed as antagonist"}, "[15]": {"experiment": "Drug concentration in Sprague-Dawley rat blood at 1 mg/kg, iv measured after 8 hrs by LC-MS/MS analysis", "format": "ADME, organism-based", "settings": "read-out: Ct"}, "HCT-116": {"system": "HCT-116", "experiment": "Reversal of 5-FU resistance against human HCT-116 cells overexpressing DPD assessed as inhibition of cell proliferation measured after 72 hrs in presence of 5-FU by MTT assay", "format": "functional, cell-based", "settings": "HCT-116, 72 h"}, "[16]": {"experiment": "AUC (0 to t) in Sprague-Dawley rat plasma at 1 mg/kg, iv measured for 24 hrs by LC-MS/MS analysis", "format": "ADME, organism-based", "set-up": "dose 1 mg/kg, time 24 hrs"}, "[17]": {"experiment": "Mean residence time (0 to t) in Sprague-Dawley rat blood at 1 mg/kg, iv measured for 24 hrs by LC-MS/MS analysis", "format": "ADME, organism-based"}, "NCM460": {"system": "NCM460", "experiment": "Cytotoxicity against human NCM460 cells assessed as cell viability measured after 72 hrs in presence of 5-FU by MTT assay", "format": "cell-based", "settings": "NCM460, 72 h"}, "[18]": {"experiment": "Mean residence time (0 to infinity) in Sprague-Dawley rat plasma at 1 mg/kg, iv by LC-MS/MS analysis", "format": "ADME, organism-based"}, "[19]": {"target": "T1, Sphingosine 1-phosphate receptor 2", "experiment": "Binding affinity to S1PR2 (unknown origin) assessed as association constant measured for 60 secs by surface plasmon resonance assay", "settings": "filed as antagonist, time 60.0 sec"}, "[20]": {"experiment": "Mean residence time (0 to t) in Sprague-Dawley rat plasma at 1 mg/kg, iv measured for 24 hrs by LC-MS/MS analysis", "format": "ADME, organism-based"}, "[21]": {"experiment": "Clearance in Sprague-Dawley rat blood at 1 mg/kg, iv measured for 24 hrs by LC-MS/MS analysis", "format": "ADME, organism-based"}, "[22]": {"experiment": "Toxicity in athymic nude mouse xenografted with human SW620/5-FU cells assessed as body weight loss at 12.5 mg/kg/day, iv administered for 24 days in presence of 5-FU and measured after 12 days", "format": "organism-based", "settings": "in vivo, 288 h, time 12 day"}, "[23]": {"target": "T1, Sphingosine 1-phosphate receptor 2", "experiment": "Antagonist activity at S1PR2 in human SW620/5-FU cells assessed as reduction of DPD-catalyzed 5-FU degradation by measuring intracellular 5-FU level at 2 uM measured after 6 hrs by HPLC-UV analysis", "format": "functional, cell-based", "settings": "filed as antagonist"}, "[24]": {"experiment": "Reversal of 5-FU resistance against human SW620/5-FU cells xenografted in athymic nude mouse assessed as potentiation of 5-FU induced antitumor activity by measuring inhibition of tumor growth at 12.5 mg/kg/day, iv administered for 24 days in presence of 5-FU (reference value: 18.54%)", "format": "functional", "settings": "576 h, time 24 day, read-out: TGI"}, "[25]": {"experiment": "Mean residence time (0 to infinity) in Sprague-Dawley rat blood at 1 mg/kg, iv by LC-MS/MS analysis", "format": "ADME, organism-based"}, "[26]": {"experiment": "AUC (0 to infinity) in Sprague-Dawley rat plasma at 1 mg/kg, iv by LC-MS/MS analysis", "format": "ADME, organism-based", "set-up": "time infinity, route intravenous, dose 1 mg/kg"}, "[27]": {"experiment": "Toxicity in athymic nude mouse xenografted with human SW620/5-FU cells assessed as histopathological changes in liver at 12.5 mg/kg/day, iv administered for 24 days in presence of 5-FU and measured on day 24 by immunohistochemistry", "format": "organism-based", "settings": "in vivo, 576 h, time 24 day"}, "[28]": {"experiment": "Reversal of 5-FU resistance against human SW620/5-FU cells assessed as inhibition of cell proliferation measured after 72 hrs in presence of 5-FU by MTT assay", "format": "functional, cell-based"}, "[29]": {"experiment": "Clearance in Sprague-Dawley rat plasma at 1 mg/kg, iv measured for 24 hrs by LC-MS/MS analysis", "format": "ADME, organism-based"}, "[30]": {"experiment": "AUC (0 to infinity) in Sprague-Dawley rat blood at 1 mg/kg, iv by LC-MS/MS analysis", "format": "ADME, organism-based", "set-up": "route intravenous, time infinity, dose 1 mg/kg"}, "[31]": {"experiment": "AUC (0 to t) in Sprague-Dawley rat blood at 1 mg/kg, iv measured for 24 hrs by LC-MS/MS analysis", "format": "ADME, organism-based", "set-up": "time 24 hrs, dose 1 mg/kg"}}, "note": "Calls of active or inactive are those of the source. No cut-off for these calls is given here.", "data": [{"smiles": "Cc1nn(C)c2nc(NNC(=O)Nc3cc(Cl)nc(Cl)c3)cc(C(C)C)c12", "values": [{"measurement": "C0", "setting": "[1]", "value": 2020, "unit": "ng/mL"}, {"measurement": "C0", "setting": "[2]", "value": 1840, "unit": "ng/mL"}, {"measurement": "half-life", "setting": "[3]", "value": 66, "unit": "min"}, {"measurement": "Vd", "setting": "[4]", "value": 3.1, "unit": "L/kg"}, {"measurement": "blood plasma ratio at 24 h", "setting": "[5]", "value": 1.62}, {"measurement": "half-life", "setting": "[6]", "value": 60, "unit": "min"}, {"measurement": "inhibition", "setting": "Mus musculus [7]", "value": "Active"}, {"measurement": "concentration at 8 h", "setting": "[8]", "value": "< 1", "unit": "ng/mL"}, {"measurement": "Dissociation rate constant (koff)", "setting": "[9]", "value": "1.61 10^-1/s"}, {"measurement": "K", "setting": "[10]", "value": "1.96 10^-6M"}, {"measurement": "Vd", "setting": "[11]", "value": 2.1, "unit": "L/kg"}, {"measurement": "inhibition", "setting": "Mus musculus [12]", "value": "Active"}, {"measurement": "inhibition", "setting": "Mus musculus [13]", "value": "inactive"}, {"measurement": "Activity", "setting": "[14]", "value": 1.37, "unit": "mg/L"}, {"measurement": "concentration at 8 h", "setting": "[15]", "value": "< 1", "unit": "ng/mL"}, {"measurement": "EC50", "setting": "HCT-116", "value": 17.1, "unit": "µM"}, {"measurement": "AUC(0-t) at 24 h", "setting": "[16]", "value": 482, "unit": "ng·h/mL"}, {"measurement": "MRT last at 24 h", "setting": "[17]", "value": 54, "unit": "min"}, {"measurement": "EC50", "setting": "NCM460", "value": 61.3, "unit": "µM"}, {"measurement": "MRT inf", "setting": "[18]", "value": 54, "unit": "min"}, {"measurement": "Ka", "setting": "[19]", "value": "8.21 10^4/M/s"}, {"measurement": "MRT last at 24 h", "setting": "[20]", "value": 54, "unit": "min"}, {"measurement": "clearance", "setting": "[21]", "value": 23.3, "unit": "mL/min/kg"}, {"measurement": "Activity", "setting": "[22]", "value": "Toxic"}, {"measurement": "Activity", "setting": "[23]", "value": 4.87, "unit": "mg/L"}, {"measurement": "inhibition in vivo at 12.5 mg/kg/day", "setting": "[24]", "value": 29.9, "unit": "%"}, {"measurement": "MRT inf", "setting": "[25]", "value": 60, "unit": "min"}, {"measurement": "AUC(0-inf)", "setting": "[26]", "value": 484, "unit": "ng·h/mL"}, {"measurement": "Activity", "setting": "[27]", "value": "Non-Toxic"}, {"measurement": "EC50", "setting": "[28]", "value": 58.6, "unit": "µM"}, {"measurement": "clearance", "setting": "[29]", "value": 35, "unit": "mL/min/kg"}, {"measurement": "AUC(0-inf)", "setting": "[30]", "value": 738, "unit": "ng·h/mL"}, {"measurement": "AUC(0-t) at 24 h", "setting": "[31]", "value": 726, "unit": "ng·h/mL"}]}]}
